{"source": "ChEMBL document CHEMBL5247590", "about": "“Novel nitrogen mustard-artemisinin hybrids with potent anti-leukemia action through DNA damage and activation of GPx” (Eur J Med Chem, 2022)", "key": {"[1]": {"assay": "Selectivity index, ratio of IC50 for human K562 cells to IC50 for human CCRF-CEM cells"}, "[2]": {"test_system": "CCRF-CEM", "assay": "Induction of apoptosis in human CCRF-CEM cells assessed as late apoptotic cells at 4 uM incubated for 48 hrs by Annexin V-FITC/PI staining based flow cytometry (reference value: 3.2 %)", "assay_type": "functional"}, "[3]": {"test_system": "CCRF-CEM", "assay": "Inhibition of cell proliferation in human CCRF-CEM cells assessed as decrease in cell number upto 4 uM incubated for 12 hrs by cell counter analysis", "assay_type": "functional, cell-based"}, "[4]": {"test_system": "CCRF-CEM", "assay": "Antiproliferative activity against human CCRF-CEM cells assessed as cell growth inhibition incubated for 72 hrs by MTT assay", "assay_type": "functional, cell-based"}, "[5]": {"test_system": "CCRF-CEM", "assay": "Downregulation of ROS level in human CCRF-CEM cells at 0.125 to 2 uM incubated for 12 hrs by DCFH-DA probe based flow cytometry analysis", "assay_type": "functional, cell-based", "settings": "dose 0.125-2 µM"}, "[6]": {"assay": "Antiproliferative activity against human L02 cells assessed as cell growth inhibition incubated for 72 hrs by MTT assay", "assay_type": "toxicity, cell-based"}, "[7]": {"test_system": "CCRF-CEM", "assay": "Induction of cell cycle arrest in human CCRF-CEM cells assessed as cell accumulation at G1 phase at 1 uM incubated for 24 hrs by PI staining based flow cytometry analysis (reference value: 24.1 %)", "assay_type": "functional"}, "[8]": {"test_system": "CCRF-CEM", "assay": "Induction of apoptosis in human CCRF-CEM cells assessed as early apoptotic cells at 2 uM incubated for 48 hrs by Annexin V-FITC/PI staining based flow cytometry (reference value: 13.4 %)", "assay_type": "functional"}, "[9]": {"test_system": "CCRF-CEM", "assay": "Induction of apoptosis in human CCRF-CEM cells assessed as early apoptotic cells at 4 uM incubated for 48 hrs by Annexin V-FITC/PI staining based flow cytometry (reference value: 13.4 %)", "assay_type": "functional"}, "[10]": {"test_system": "CCRF-CEM", "assay": "Induction of apoptosis in human CCRF-CEM cells assessed as early apoptotic cells at 1 uM incubated for 48 hrs by Annexin V-FITC/PI staining based flow cytometry (reference value: 13.4 %)", "assay_type": "functional"}, "[11]": {"test_system": "CCRF-CEM", "assay": "Induction of apoptosis in human CCRF-CEM cells assessed effect on cleaved caspase-3 expression at 0.25 to 0.5 uM incubated for 48 hrs by Western blot analysis", "assay_type": "functional, cell-based", "settings": "dose 0.25-0.5 µM"}, "[12]": {"test_system": "CCRF-CEM", "assay": "Induction of cell cycle arrest in human CCRF-CEM cells assessed as cell accumulation at S phase at 2 uM incubated for 24 hrs by PI staining based flow cytometry analysis (reference value: 15.5 %)", "assay_type": "functional"}, "[13]": {"test_system": "CCRF-CEM", "assay": "Induction of apoptosis in human CCRF-CEM cells assessed as late apoptotic cells at 2 uM incubated for 48 hrs by Annexin V-FITC/PI staining based flow cytometry (reference value: 3.2 %)", "assay_type": "functional"}, "[14]": {"test_system": "CCRF-CEM", "assay": "Induction of apoptosis in human CCRF-CEM cells assessed as late apoptotic cells at 0.25 uM incubated for 48 hrs by Annexin V-FITC/PI staining based flow cytometry (reference value: 3.2 %)", "assay_type": "functional"}, "[15]": {"assay": "Selectivity index, ratio of IC50 for human L02 cells to IC50 for human CCRF-CEM cells", "assay_type": "toxicity", "settings": "L02 cells and CCRF-CEM cells, read-out: Selectivity Index"}, "[16]": {"test_system": "CCRF-CEM", "assay": "Induction of apoptosis in human CCRF-CEM cells assessed as necrotic cells at 0.5 uM incubated for 48 hrs by Annexin V-FITC/PI staining based flow cytometry (reference value: 0.0 %)", "assay_type": "functional"}, "[17]": {"test_system": "CCRF-CEM", "assay": "Induction of cell cycle arrest in human CCRF-CEM cells assessed as cell accumulation at S phase at 0.5 uM incubated for 24 hrs by PI staining based flow cytometry analysis (reference value: 15.5 %)", "assay_type": "functional"}, "[18]": {"test_system": "CCRF-CEM", "assay": "Induction of cell cycle arrest in human CCRF-CEM cells assessed as cell accumulation at G2/M phase at 2 uM incubated for 24 hrs by PI staining based flow cytometry analysis (reference value: 61.3 %)", "assay_type": "functional"}, "[19]": {"test_system": "CCRF-CEM", "assay": "Induction of apoptosis in human CCRF-CEM cells assessed as late apoptotic cells at 1 uM incubated for 48 hrs by Annexin V-FITC/PI staining based flow cytometry (reference value: 3.2 %)", "assay_type": "functional"}, "[20]": {"test_system": "A549", "assay": "Antiproliferative activity against human A549 cells assessed as cell growth inhibition incubated for 72 hrs by MTT assay", "assay_type": "functional, cell-based", "settings": "A549, 72 h"}, "[21]": {"test_system": "CCRF-CEM", "assay": "Downregulation of ROS level in human CCRF-CEM cells assessed as effect on CAT level at 0.125 to 0.5 uM incubated for 12 hrs in presence of NADPH by DCFH-DA probe based flow cytometry analysis", "assay_type": "functional, cell-based", "settings": "dose 0.125-0.5 µM"}, "[22]": {"test_system": "CCRF-CEM", "assay": "Induction of apoptosis in human CCRF-CEM cells assessed as viable cells at 1 uM incubated for 48 hrs by Annexin V-FITC/PI staining based flow cytometry (reference value: 83.4 %)", "assay_type": "functional", "settings": "read-out: Activity"}, "[23]": {"test_system": "CCRF-CEM", "assay": "Induction of apoptosis in human CCRF-CEM cells assessed as necrotic cells at 1 uM incubated for 48 hrs by Annexin V-FITC/PI staining based flow cytometry (reference value: 0.0 %)", "assay_type": "functional"}, "[24]": {"test_system": "CCRF-CEM", "assay": "Antiproliferative activity against human CCRF-CEM cells assessed as cell growth inhibition at 0.1875 to 20 uM by CCK8 assay", "assay_type": "functional, cell-based", "settings": "dose 0.1875-20 µM, time 24-48 hrs, TDE = time-dependent effect"}, "[25]": {"test_system": "HCT-116", "assay": "Antiproliferative activity against human HCT-116 cells assessed as cell growth inhibition incubated for 72 hrs by MTT assay", "assay_type": "functional, cell-based", "settings": "HCT-116, 72 h"}, "[26]": {"test_system": "CCRF-CEM", "assay": "Induction of apoptosis in human CCRF-CEM cells assessed downregulation of Bcl-2 expression at 0.25 to 0.5 uM incubated for 48 hrs by Western blot analysis", "assay_type": "functional, cell-based", "settings": "dose 0.25-0.5 µM"}}, "note": "The source made the active and inactive calls. The rule behind the calls is not given here."}
{"smiles": "C[C@@H]1CC[C@H]2[C@@H](C)C(OC(=O)c3ccc(N(CCCl)CCCl)cc3)O[C@@H]3O[C@@]4(C)CC[C@@H]1[C@]32OO4", "note": "(stereo partly specified)", "values": [{"measurement": "Selectivity Index", "setting": "[1]", "result": 1.82}, {"measurement": "Activity", "setting": "[2]", "result": 14.8, "unit": "%"}, {"measurement": "inhibition", "setting": "[3]", "result": "Active"}, {"measurement": "IC50", "setting": "[4]", "result": 0.895, "unit": "µM"}, {"measurement": "Activity", "setting": "[5]", "result": "Dose-Dependent Effect"}, {"measurement": "IC50 at 72 h", "setting": "[6]", "result": "> 40", "unit": "µM"}, {"measurement": "Activity", "setting": "[7]", "result": 18.2, "unit": "%"}, {"measurement": "Activity", "setting": "[8]", "result": 33.4, "unit": "%"}, {"measurement": "Activity", "setting": "[9]", "result": 37.3, "unit": "%"}, {"measurement": "Activity", "setting": "[10]", "result": 26.7, "unit": "%"}, {"measurement": "AC30", "setting": "[11]", "result": "inactive"}, {"measurement": "Activity", "setting": "[12]", "result": 6.5, "unit": "%"}, {"measurement": "Activity", "setting": "[13]", "result": 12.8, "unit": "%"}, {"measurement": "Activity", "setting": "[14]", "result": 11.7, "unit": "%"}, {"measurement": "selectivity ratio", "setting": "[15]", "result": 44.7}, {"measurement": "Activity", "setting": "[16]", "result": 0.1, "unit": "%"}, {"measurement": "Activity", "setting": "[17]", "result": 6.8, "unit": "%"}, {"measurement": "Activity", "setting": "[18]", "result": 67.1, "unit": "%"}, {"measurement": "Activity", "setting": "[19]", "result": 12.8, "unit": "%"}, {"measurement": "IC50", "setting": "[20]", "result": 2.87, "unit": "µM"}, {"measurement": "Activity", "setting": "[21]", "result": "Active"}, {"measurement": "viability at 1 µM", "setting": "[22]", "result": 60.4, "unit": "%"}, {"measurement": "Activity", "setting": "[23]", "result": 0.1, "unit": "%"}, {"measurement": "Activity", "setting": "[24]", "result": "Tde"}, {"measurement": "IC50", "setting": "[25]", "result": 3.1, "unit": "µM"}, {"measurement": "Activity", "setting": "[26]", "result": "Active"}]}
